Experimental data reported in ChEMBL document CHEMBL5506024, “Multitarget μ-Opioid Receptor Agonists─Neuropeptide FF Receptor Antagonists Induce Potent Antinociception with Reduced Adverse Side Effects” (J Med Chem, 2024).
Numbered stars: 1 amine (or outer) side, 2 acyl side, 3 side chain; on linkers, the order of the positions; unused ones are H or OH. Square brackets hold non-standard residues; d marks the D form. Peptide text beside a SMILES is read from it. Nva(5-(4-Bn-piperidin-1-yl)) = N[C@@H](CCCN1CCC(Cc2ccccc2)CC1)C(=O)O; X2 = O=C1[C@@H](N[*:1])Cc2ccccc2CN1CCCC(=O)[*:2]; X1 = O=C1[C@@H](N[*:1])Cc2ccccc2CN1CCC(=O)[*:2]; Tic(7-OH) = O=C(O)[C@@H]1Cc2ccc(O)cc2CN1; Dmt = Cc1cc(O)cc(C)c1C[C@H](N)C(=O)O; d(hArg) = N=C(N)NCCCC[C@@H](N)C(=O)O; Nlys = NCCCCNCC(=O)O; βAla = NCCC(=O)O; Sar = CNCC(=O)O

Assays:
Type in all cases: functional, cell-based
Mu-type opioid receptor [1] = molecular target: T1, Mu-type opioid receptor (Homo sapiens, UniProt P35372); test: Agonist activity at human MOP expressed in HEK293 cells coexpressing GloSensor-20F assessed as inhibition of forskolin-induced cAMP accumulation relative to control
Mu-type opioid receptor [2] = molecular target: T1, Mu-type opioid receptor; test: Agonist activity at human Rluc8-tagged MOP expressed in HEK293 cells coexpressing eYFP-tagged beta-arrestin-2 assessed as beta-arrestin-2 recruitment incubated for 5 mins by luminometer analysis relative to control
Mu-type opioid receptor [3] = molecular target: T1, Mu-type opioid receptor; test: Agonist activity at human Rluc8-tagged MOP expressed in HEK293 cells coexpressing eYFP-tagged beta-arrestin-2 assessed as beta-arrestin-2 recruitment incubated for 5 mins by luminometer analysis
Mu-type opioid receptor [4] = molecular target: T1, Mu-type opioid receptor; test: Agonist activity at human MOP expressed in HEK293 cells coexpressing GloSensor-20F assessed as inhibition of forskolin-induced cAMP accumulation

T1 sequence (P35372 whole entry): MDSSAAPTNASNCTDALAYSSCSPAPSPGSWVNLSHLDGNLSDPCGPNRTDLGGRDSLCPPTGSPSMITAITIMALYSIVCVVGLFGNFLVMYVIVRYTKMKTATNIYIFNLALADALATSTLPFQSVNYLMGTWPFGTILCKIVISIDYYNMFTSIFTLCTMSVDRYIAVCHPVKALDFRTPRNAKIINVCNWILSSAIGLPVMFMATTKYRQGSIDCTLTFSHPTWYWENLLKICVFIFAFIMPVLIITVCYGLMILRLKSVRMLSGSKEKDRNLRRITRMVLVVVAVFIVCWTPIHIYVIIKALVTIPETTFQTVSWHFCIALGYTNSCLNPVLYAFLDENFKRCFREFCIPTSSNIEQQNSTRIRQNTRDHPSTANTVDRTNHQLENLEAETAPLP

Row | Compound | Emax (Mu-type opioid receptor [1]; filed as agonist) | Emax (Mu-type opioid receptor [2]; filed as agonist) | EC50 (Mu-type opioid receptor [3]; read-out: EC50) | also measured
1 | Cc1cc(O)cc(C)c1C[C@H](N)C(=O)N[C@H](CCCNC(=N)N)C(=O)N[C@@H](Cc1ccccc1)C(=O)N(C)CC(=O)N[C@@H](CCCN1CCC(Cc2ccccc2)CC1)C(=O)N[C@H](C(N)=O)C(C)C (H-[Dmt][dR]F[Sar][Nva(5-(4-Bn-piperidin-1-yl))]V-NH2) | 110% | 116% | 59 nM | 
2 | Cc1cc(O)cc(C)c1C[C@H](N)C(=O)N[C@H](CCCNC(=N)N)C(=O)N[C@H]1Cc2ccccc2CN(CCC(=O)N[C@@H](CCCN2CCC(Cc3ccccc3)CC2)C(=O)N[C@H](Cc2ccccc2)C(N)=O)C1=O | 109% | 59% |  | 
3 | Cc1cc(O)cc(C)c1C[C@H](N)C(=O)N[C@H](CCCNC(=N)N)C(=O)N[C@@H](Cc1ccccc1)C(=O)N(C)[C@@H](C)C(=O)N[C@@H](CCCN1CCC(Cc2ccccc2)CC1)C(=O)N[C@@H](Cc1ccccc1)C(N)=O | 99% | 87% | 92 nM | EC50 (Mu-type opioid receptor [4]): 17 nM
4 | Cc1cc(O)cc(C)c1C[C@H](N)C(=O)N[C@H](CCCNC(=N)N)C(=O)N[C@H](Cc1ccccc1)C(=O)N(C)CCC(=O)N[C@@H](CCCN1CCC(Cc2ccccc2)CC1)C(=O)N[C@@H](Cc1ccccc1)C(N)=O | 65% |  |  | EC50 (Mu-type opioid receptor [4]; hek293): 180 nM
5 | Cc1cc(O)cc(C)c1C[C@H](N)C(=O)N[C@H](CCCNC(=N)N)C(=O)N[C@H]1Cc2ccccc2CN(CCCC(=O)N[C@@H](CCCN2CCC(Cc3ccccc3)CC2)C(=O)N[C@@H](Cc2c[nH]c3ccccc23)C(N)=O)C1=O (H-[Dmt][dR][X2][Nva(5-(4-Bn-piperidin-1-yl))]W-NH2) | 90% |  |  | Emax (Mu-type opioid receptor [2]): 30%
6 | Cc1cc(O)cc(C)c1C[C@H](N)C(=O)N[C@H](CCCNC(=N)N)C(=O)N[C@H]1Cc2ccccc2CN(CCCC(=O)N[C@@H](CCCN2CCC(Cc3ccccc3)CC2)C(=O)N[C@@H](Cc2ccccc2)C(N)=O)C1=O (H-[Dmt][dR][X2][Nva(5-(4-Bn-piperidin-1-yl))]F-NH2) | 108% |  |  | Emax (Mu-type opioid receptor [2]): 31%
7 | Cc1cc(O)cc(C)c1C[C@H](N)C(=O)N[C@H](CCCNC(=N)N)C(=O)N[C@H]1Cc2c(ccc3ccccc23)CN(CCC(=O)N[C@@H](CCCN2CCC(Cc3ccccc3)CC2)C(=O)N[C@@H](Cc2ccccc2)C(N)=O)C1=O | 111% | 60% | 56 nM | EC50 (Mu-type opioid receptor [4]): 5.3 nM
8 | Cc1cc(O)cc(C)c1C[C@H](N)C(=O)N[C@H](CCCCNC(=N)N)C(=O)N[C@H]1Cc2ccccc2CN(CCC(=O)N[C@@H](CCCN2CCC(Cc3ccccc3)CC2)C(=O)N[C@@H](Cc2ccccc2)C(N)=O)C1=O (H-[Dmt][d(hArg)][X1][Nva(5-(4-Bn-piperidin-1-yl))]F-NH2) |  |  |  | Emax (Mu-type opioid receptor [1]): 39%; EC50 (Mu-type opioid receptor [4]): 24 nM; EC50 (Mu-type opioid receptor [3]; hek293): Not Active
9 | Cc1cc(O)cc(C)c1C[C@H](N)C(=O)N[C@H](CCCNC(=N)N)C(=O)N[C@H]1Cc2ccccc2CN(CCC(=O)N[C@@H](CCCN2CCC(Cc3ccccc3)CC2)C(=O)N[C@@H](Cc2ccc(O)cc2)C(N)=O)C1=O (H-[Dmt][dR][X1][Nva(5-(4-Bn-piperidin-1-yl))]Y-NH2) | 88% | 64% |  | 
10 | Cc1cc(O)cc(C)c1C[C@H](N)C(=O)N[C@H](CCCNC(=N)N)C(=O)N[C@H]1Cc2ccccc2CN(CCC(=O)N[C@@H](CCCN2CCC(Cc3ccccc3)CC2)C(=O)N[C@H](C(N)=O)C(C)C)C1=O (H-[Dmt][dR][X1][Nva(5-(4-Bn-piperidin-1-yl))]V-NH2) | 124% | 52% |  | 
11 | N=C(N)NCCC[C@@H](NC(=O)[C@@H]1Cc2ccc(O)cc2CN1)C(=O)N[C@H]1Cc2ccccc2CN(CCC(=O)N[C@@H](CCCN2CCC(Cc3ccccc3)CC2)C(=O)N[C@@H](Cc2ccccc2)C(N)=O)C1=O (H-[Tic(7-OH)][dR][X1][Nva(5-(4-Bn-piperidin-1-yl))]F-NH2) | 46% |  | 1340 nM | Emax (Mu-type opioid receptor [2]): 33%
12 | Cc1cc(O)cc(C)c1C[C@H](N)C(=O)N(CCCCN)CC(=O)N[C@H]1Cc2ccccc2CN(CCC(=O)N[C@@H](CCCN2CCC(Cc3ccccc3)CC2)C(=O)N[C@@H](Cc2ccccc2)C(N)=O)C1=O (H-[Dmt][Nlys][X1][Nva(5-(4-Bn-piperidin-1-yl))]F-NH2) |  |  |  | Emax (Mu-type opioid receptor [1]): 15%; EC50 (Mu-type opioid receptor [3]; hek293): Not Active
13 | Cc1cc(O)cc(C)c1C[C@@H](N)C(=O)N[C@H](CCCNC(=N)N)C(=O)N[C@@H](Cc1ccccc1)C(=O)N(C)CCC(=O)N[C@@H](CCCN1CCC(Cc2ccccc2)CC1)C(=O)N[C@@H](Cc1ccccc1)C(N)=O | 110% | 49% |  | 
14 | Cc1cc(O)cc(C)c1C[C@H](N)C(=O)N[C@H](CCCNC(=N)N)C(=O)N[C@@H](Cc1ccccc1)C(=O)N(C)[C@H](C)C(=O)N[C@@H](CCCN1CCC(Cc2ccccc2)CC1)C(=O)N[C@@H](Cc1ccccc1)C(N)=O | 111% | 83% | 154 nM | 
15 | Cc1cc(O)cc(C)c1C[C@H](N)C(=O)N[C@H](CCCN1CCC(Cc2ccccc2)CC1)C(=O)N[C@H]1Cc2ccccc2CN(CCC(=O)N[C@@H](CCCN2CCC(Cc3ccccc3)CC2)C(=O)N[C@@H](Cc2ccccc2)C(N)=O)C1=O |  |  |  | Emax (Mu-type opioid receptor [1]): 35%
16 | Cc1cc(O)cc(C)c1C[C@H](N)C(=O)N[C@H](CCCNC(=N)N)C(=O)N[C@@H](Cc1ccccc1)C(=O)NCCC(=O)N[C@@H](CCCN1CCC(Cc2ccccc2)CC1)C(=O)N[C@@H](Cc1ccccc1)C(N)=O (H-[Dmt][dR]F[βAla][Nva(5-(4-Bn-piperidin-1-yl))]F-NH2) | 101% | 53% |  | 
17 | Cc1cc(O)cc(C)c1C[C@H](N)C(=O)N[C@H](CCCNC(=N)N)C(=O)N[C@@H](Cc1ccccc1)C(=O)N(C)CC(=O)N[C@@H](CCCN1CCC(Cc2ccccc2)CC1)C(=O)N[C@@H](Cc1ccccc1)C(N)=O (H-[Dmt][dR]F[Sar][Nva(5-(4-Bn-piperidin-1-yl))]F-NH2) | 97% | 96% | 53 nM | 
18 | Cc1cc(O)cc(C)c1C[C@H](N)C(=O)N[C@H](CCCNC(=N)N)C(=O)N[C@@H](Cc1ccccc1)C(=O)N(C)CCC(=O)N[C@@H](CCCN1CCC(Cc2ccccc2)CC1)C(=O)N[C@@H](Cc1ccccc1)C(N)=O |  |  | 45 nM | EC50 (Mu-type opioid receptor [4]): 8.9 nM
19 | Cc1cc(O)cc(C)c1C[C@H](N)C(=O)N[C@H](CCCNC(=N)N)C(=O)N[C@H]1Cc2ccccc2CN(CCC(=O)N[C@@H](CCCN2CCC(Cc3ccccc3)CC2)C(=O)N[C@@H](CC(C)C)C(N)=O)C1=O (H-[Dmt][dR][X1][Nva(5-(4-Bn-piperidin-1-yl))]L-NH2) | 70% |  |  | Emax (Mu-type opioid receptor [2]): 38%
20 | Cc1cc(O)cc(C)c1C[C@H](N)C(=O)N[C@H](CCCNC(=N)N)C(=O)N[C@H]1Cc2ccccc2CN(CCC(=O)N[C@@H](CCCN2CCc3ccccc3C2)C(=O)N[C@@H](Cc2ccccc2)C(N)=O)C1=O | 98% | 60% | 25 nM | 
21 | Cc1cc(O)cc(C)c1C[C@H](N)C(=O)N[C@H](CCCNC(=N)N)C(=O)N[C@H]1Cc2ccccc2CN(CCC(=O)N[C@H](CCCN2CCC(Cc3ccccc3)CC2)C(=O)N[C@@H](Cc2ccccc2)C(N)=O)C1=O | 95% | 76% | 178 nM | EC50 (Mu-type opioid receptor [4]): 14 nM
22 | Cc1cc(O)cc(C)c1C[C@H](N)C(=O)N[C@H](CCCCN)C(=O)N[C@H]1Cc2ccccc2CN(CCC(=O)N[C@@H](CCCN2CCC(Cc3ccccc3)CC2)C(=O)N[C@@H](Cc2ccccc2)C(N)=O)C1=O (H-[Dmt][dK][X1][Nva(5-(4-Bn-piperidin-1-yl))]F-NH2) | 67% |  |  | EC50 (Mu-type opioid receptor [4]): 30 nM; EC50 (Mu-type opioid receptor [3]; hek293): Not Active
23 | Cc1cc(O)cc(C)c1C[C@H](N)C(=O)N1CCC[C@@H]1C(=O)N[C@H]1Cc2ccccc2CN(CC(=O)N[C@@H](CCCN2CCC(Cc3ccccc3)CC2)C(=O)N[C@@H](Cc2ccccc2)C(N)=O)C1=O | 85% |  | 162 nM | Emax (Mu-type opioid receptor [2]): 27%; EC50 (Mu-type opioid receptor [4]): 21 nM
24 | Cc1cc(O)cc(C)c1C[C@H](N)C(=O)N[C@H](CCCNC(=N)N)C(=O)N[C@H]1Cc2ccccc2CN(CCC(=O)N[C@@H](CCCN2CCC(Cc3ccccc3)CC2)C(=O)N[C@@H](Cc2c[nH]c3ccccc23)C(N)=O)C1=O (H-[Dmt][dR][X1][Nva(5-(4-Bn-piperidin-1-yl))]W-NH2) | 81% | 42% |  | 
25 | CC[C@H](C)[C@H](NC(=O)[C@H](CCCN1CCC(Cc2ccccc2)CC1)NC(=O)CCN1Cc2ccccc2C[C@H](NC(=O)[C@@H](CCCNC(=N)N)NC(=O)[C@@H](N)Cc2c(C)cc(O)cc2C)C1=O)C(N)=O (H-[Dmt][dR][X1][Nva(5-(4-Bn-piperidin-1-yl))]I-NH2) | 110% | 49% |  | 
26 | Cc1cc(O)cc(C)c1C[C@H](N)C(=O)N[C@H](CCCNC(=N)N)C(=O)N[C@H]1Cc2ccccc2CN(CCCC(=O)N[C@@H](CCCN2CCC(Cc3ccccc3)CC2)C(=O)N[C@H](C(N)=O)C(C)C)C1=O (H-[Dmt][dR][X2][Nva(5-(4-Bn-piperidin-1-yl))]V-NH2) | 101% | 53% |  | 
27 | Cc1cc(O)cc(C)c1C[C@H](N)C(=O)N[C@H](CCCNC(=N)N)C(=O)N[C@H]1Cc2ccccc2CN(CCC(=O)N[C@@H](CCCN2CCC(Cc3ccccc3)CC2)C(=O)N[C@@H](Cc2ccccc2)C(=O)NCCC(N)=O)C1=O (H-[Dmt][dR][X1][Nva(5-(4-Bn-piperidin-1-yl))]F[βAla]-NH2) | 95% |  |  | Emax (Mu-type opioid receptor [2]): 31%
